Structures can show the parent of a compound that is named as a salt.
Molecular target: T1, human factor Xa (Homo sapiens, UniProt P00742)
T1 construct: factor Xa, which is formed from the proenzyme factor X
Experiment: Determination of the factor Xa inhibition (fluorogenic substrate Boc-Ile-Glu-Gly-Arg-AMC)
Type: biochemical
Settings: 15 min preincubation at 22° C., substrate 5 μmol/l, pH 7.4, fluorescence 360/460 nm
Protocol: In order to determine the factor Xa inhibition of the substances listed above, a biochemical test system is set up, in which the conversion of a factor Xa substrate is used to determine the enzymatic activity of human factor Xa. Factor Xa cleaves aminomethylcoumarin, whose fluorescence is measured, from the peptidic substrate. The determinations are carried out in microtitre plates.
Substances to be tested, in various concentrations, are dissolved in dimethyl sulphoxide and incubated for 15 min at 22° C. with human Factor Xa ([…] dissolved in 50 mmol/l of Tris buffer [C,C,C-tris(hydroxymethyl)aminomethane], 100 mmol/l NaCl, 0.1% BSA [bovine serum albumin], pH 7.4). The substrate (5 μmol/l of Boc-Ile-Glu-Gly-Arg-AMC from Bachem) is then added. After an incubation time of 30 min, the sample is excited at a wavelength of 360 nm, and the emission at 460 nm is measured. The measured emissions of the test batches with test substance are compared to the control batches without test substance (only dimethyl sulphoxide instead of test substance in dimethyl sulphoxide), and IC50 values are calculated from the concentration/activity relationships.

T1 sequence (P00742 235-488 limits assumed): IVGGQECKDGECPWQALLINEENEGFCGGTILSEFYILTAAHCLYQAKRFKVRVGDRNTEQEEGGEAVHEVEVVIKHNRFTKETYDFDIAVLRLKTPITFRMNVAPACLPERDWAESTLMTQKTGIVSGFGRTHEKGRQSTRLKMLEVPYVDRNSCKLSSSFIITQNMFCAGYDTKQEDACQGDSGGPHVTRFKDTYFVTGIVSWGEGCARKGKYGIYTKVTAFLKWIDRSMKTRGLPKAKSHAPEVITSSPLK
T1 sequence (P00742 41-179 partner limits assumed): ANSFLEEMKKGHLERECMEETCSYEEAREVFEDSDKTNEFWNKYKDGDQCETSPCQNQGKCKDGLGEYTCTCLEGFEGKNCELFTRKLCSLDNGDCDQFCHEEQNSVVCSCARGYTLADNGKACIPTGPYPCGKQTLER

Row | IC50 [nM] | Compound
1 | 7.9 | N=C1OCCN1c1ccc(C2=NOC(CNC(=O)c3ccc(Cl)s3)C2)cc1 (centres unmarked) [Example 1, 5-Chloro-N-({3-[4-(2-imino-1,3-oxazolidin-3-yl)phenyl]-4,5-dihydroisoxazol-5-yl}methyl)thiophene-2-carboxamide]
2 | 1.4 | N=C1OCCN1c1ccc(-n2cc(CNC(=O)c3ccc(Cl)s3)c(-c3ccccc3)n2)cc1 [Example 2, 5-Chloro-N-({1-[4-(2-imino-1,3-oxazolidin-3-yl)phenyl]-3-phenyl-1H-pyrazol-4-yl}methyl)thiophene-2-carboxamide hydrochloride]

— patent publication US20110015241A1, “SUBSTITUTED HETEROCYCLES AND USE THEREOF” (BAYER SCHERING PHARMA AKTIENGESELLSCHAFT, priority 2006, published 2011)
